Two molecules from PMC9851200, “Multiparameter phenotypic screening for endogenous TFEB and TFE3 translocation identifies novel chemical series modulating lysosome function” (Autophagy, 2022) can be followed below.

Common to all, as to format: binding
Experiment [1] has as its target kinases (KINOMEscan panel) (Homo sapiens, UniProt P00533, L858R). The note with it: kinase EGFR(L858R); NEW KINOMEscan.
For experiment [2], the target named is kinases (KINOMEscan panel) (Homo sapiens, UniProt P23458). The note with it: JAK1(JH1domain-catalytic); NEW KINOMEscan.
The target in experiment [3] is kinases (KINOMEscan panel) (Homo sapiens, UniProt P36888, N841I). The note with it: FLT3(N841I); NEW KINOMEscan.
Experiment [4] addresses kinases (KINOMEscan panel) (Homo sapiens, UniProt P42336, H1047L). The note with it: NEW KINOMEscan.
In experiment [5] the target is kinases (KINOMEscan panel) (Homo sapiens, UniProt P42684). To be noted: ABL2; NEW KINOMEscan.
Sequence of kinases (KINOMEscan panel) (Homo sapiens, UniProt P42684) (P42684 whole entry): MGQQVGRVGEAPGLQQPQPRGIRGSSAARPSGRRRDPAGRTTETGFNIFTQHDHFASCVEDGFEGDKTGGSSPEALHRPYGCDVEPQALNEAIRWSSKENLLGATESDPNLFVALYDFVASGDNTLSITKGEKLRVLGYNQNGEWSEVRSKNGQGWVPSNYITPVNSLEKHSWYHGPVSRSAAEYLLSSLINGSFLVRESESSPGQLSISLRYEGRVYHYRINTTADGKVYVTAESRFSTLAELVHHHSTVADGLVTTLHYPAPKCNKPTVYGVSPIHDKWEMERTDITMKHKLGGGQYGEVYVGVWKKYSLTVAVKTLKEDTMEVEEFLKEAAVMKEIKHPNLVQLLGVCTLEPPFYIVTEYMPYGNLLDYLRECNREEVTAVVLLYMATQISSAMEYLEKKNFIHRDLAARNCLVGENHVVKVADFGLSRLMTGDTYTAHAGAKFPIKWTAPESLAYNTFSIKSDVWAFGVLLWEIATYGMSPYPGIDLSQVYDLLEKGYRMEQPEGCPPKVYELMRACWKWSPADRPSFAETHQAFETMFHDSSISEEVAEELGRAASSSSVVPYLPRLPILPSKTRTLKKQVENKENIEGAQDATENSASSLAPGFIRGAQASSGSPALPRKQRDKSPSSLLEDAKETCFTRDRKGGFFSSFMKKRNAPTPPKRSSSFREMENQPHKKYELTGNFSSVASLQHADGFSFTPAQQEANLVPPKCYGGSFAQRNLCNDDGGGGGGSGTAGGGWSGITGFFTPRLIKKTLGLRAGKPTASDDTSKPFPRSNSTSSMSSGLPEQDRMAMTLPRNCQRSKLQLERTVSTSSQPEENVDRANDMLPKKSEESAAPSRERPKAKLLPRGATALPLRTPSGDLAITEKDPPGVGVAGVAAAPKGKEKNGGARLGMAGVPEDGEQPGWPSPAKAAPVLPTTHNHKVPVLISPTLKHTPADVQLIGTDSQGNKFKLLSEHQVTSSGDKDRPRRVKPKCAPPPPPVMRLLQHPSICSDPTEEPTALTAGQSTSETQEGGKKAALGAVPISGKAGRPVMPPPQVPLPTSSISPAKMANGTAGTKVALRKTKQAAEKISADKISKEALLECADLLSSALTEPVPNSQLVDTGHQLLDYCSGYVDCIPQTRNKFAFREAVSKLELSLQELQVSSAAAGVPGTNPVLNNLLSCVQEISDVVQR
Experiment [6] has as its target kinases (KINOMEscan panel) (Homo sapiens, UniProt P49840). To be noted: GSK3A; NEW KINOMEscan.
The target of experiment [7] is kinases (KINOMEscan panel) (Homo sapiens, UniProt Q00537). To be noted: kinase CDK17; NEW KINOMEscan.
Sequence of kinases (KINOMEscan panel) (Homo sapiens, UniProt Q00537) (Q00537 whole entry): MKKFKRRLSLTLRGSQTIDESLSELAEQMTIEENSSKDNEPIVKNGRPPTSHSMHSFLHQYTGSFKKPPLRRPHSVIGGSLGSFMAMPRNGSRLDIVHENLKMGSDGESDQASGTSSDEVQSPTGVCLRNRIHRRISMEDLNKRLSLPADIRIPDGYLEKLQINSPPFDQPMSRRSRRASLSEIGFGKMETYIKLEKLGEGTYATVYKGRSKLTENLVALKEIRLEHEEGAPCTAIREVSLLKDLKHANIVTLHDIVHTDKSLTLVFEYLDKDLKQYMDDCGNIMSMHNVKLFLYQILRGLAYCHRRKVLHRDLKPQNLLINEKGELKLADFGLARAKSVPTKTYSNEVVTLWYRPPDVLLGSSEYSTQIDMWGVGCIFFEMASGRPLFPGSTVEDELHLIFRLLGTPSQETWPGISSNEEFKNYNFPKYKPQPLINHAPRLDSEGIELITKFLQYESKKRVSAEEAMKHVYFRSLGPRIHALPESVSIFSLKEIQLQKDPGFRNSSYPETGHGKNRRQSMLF
Experiment [8] has as its target kinases (KINOMEscan panel) (Homo sapiens, UniProt Q02779). The note with it: kinase MAP3K10; NEW KINOMEscan.
The target in experiment [9] is T1, kinases (KINOMEscan panel) (Homo sapiens, UniProt Q06418).
T1 sequence (Q06418 41-890): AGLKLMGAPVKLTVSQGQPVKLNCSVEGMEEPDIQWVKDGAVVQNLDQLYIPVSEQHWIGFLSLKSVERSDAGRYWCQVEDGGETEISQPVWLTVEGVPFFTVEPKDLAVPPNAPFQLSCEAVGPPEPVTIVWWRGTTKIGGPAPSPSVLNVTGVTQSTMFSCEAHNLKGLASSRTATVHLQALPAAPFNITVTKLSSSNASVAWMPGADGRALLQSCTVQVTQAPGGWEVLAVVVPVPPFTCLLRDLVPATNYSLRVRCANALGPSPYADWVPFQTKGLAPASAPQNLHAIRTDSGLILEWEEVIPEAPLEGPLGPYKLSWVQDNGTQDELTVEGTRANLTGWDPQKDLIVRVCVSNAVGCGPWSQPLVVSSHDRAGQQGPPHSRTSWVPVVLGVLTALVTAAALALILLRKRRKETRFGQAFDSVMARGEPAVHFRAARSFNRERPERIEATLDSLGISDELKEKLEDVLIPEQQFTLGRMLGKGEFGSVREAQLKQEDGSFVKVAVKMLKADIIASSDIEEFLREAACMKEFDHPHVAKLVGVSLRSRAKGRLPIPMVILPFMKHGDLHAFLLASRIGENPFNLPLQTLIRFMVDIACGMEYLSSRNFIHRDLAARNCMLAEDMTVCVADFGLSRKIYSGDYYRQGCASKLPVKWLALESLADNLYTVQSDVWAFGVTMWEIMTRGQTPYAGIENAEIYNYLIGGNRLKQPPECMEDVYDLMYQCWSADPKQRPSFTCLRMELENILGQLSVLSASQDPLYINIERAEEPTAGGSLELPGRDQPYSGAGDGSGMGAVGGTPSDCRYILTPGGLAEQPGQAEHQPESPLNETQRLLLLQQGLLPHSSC
To be noted: NEW KINOMEscan.

Experiment [10] addresses kinases (KINOMEscan panel) (Homo sapiens, UniProt Q13233). To be noted: MAP3K1; NEW KINOMEscan.
In experiment [11] the target is T2, kinases (KINOMEscan panel) (Homo sapiens, UniProt Q96D53).
T2 sequence (Q96D53 1-544): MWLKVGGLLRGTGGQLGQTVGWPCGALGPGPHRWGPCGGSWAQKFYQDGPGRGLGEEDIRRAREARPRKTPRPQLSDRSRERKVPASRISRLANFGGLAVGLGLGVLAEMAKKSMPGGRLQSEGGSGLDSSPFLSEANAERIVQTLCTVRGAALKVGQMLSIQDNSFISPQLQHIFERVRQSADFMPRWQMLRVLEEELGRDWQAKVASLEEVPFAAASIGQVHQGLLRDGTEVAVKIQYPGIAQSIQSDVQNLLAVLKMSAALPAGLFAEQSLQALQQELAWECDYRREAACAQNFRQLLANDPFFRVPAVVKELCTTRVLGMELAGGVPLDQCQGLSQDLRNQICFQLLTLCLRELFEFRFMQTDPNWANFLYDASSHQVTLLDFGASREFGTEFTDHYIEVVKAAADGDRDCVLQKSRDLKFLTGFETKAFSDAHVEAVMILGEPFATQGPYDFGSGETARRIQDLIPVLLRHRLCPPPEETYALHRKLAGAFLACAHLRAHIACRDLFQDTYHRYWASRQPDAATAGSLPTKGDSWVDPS
To be noted: kinase COQ8B; NEW KINOMEscan.

In experiment [12] the target is T3, kinases (KINOMEscan panel) (Homo sapiens, UniProt Q9UQ88).
T3 sequence (Q9UQ88 1-783): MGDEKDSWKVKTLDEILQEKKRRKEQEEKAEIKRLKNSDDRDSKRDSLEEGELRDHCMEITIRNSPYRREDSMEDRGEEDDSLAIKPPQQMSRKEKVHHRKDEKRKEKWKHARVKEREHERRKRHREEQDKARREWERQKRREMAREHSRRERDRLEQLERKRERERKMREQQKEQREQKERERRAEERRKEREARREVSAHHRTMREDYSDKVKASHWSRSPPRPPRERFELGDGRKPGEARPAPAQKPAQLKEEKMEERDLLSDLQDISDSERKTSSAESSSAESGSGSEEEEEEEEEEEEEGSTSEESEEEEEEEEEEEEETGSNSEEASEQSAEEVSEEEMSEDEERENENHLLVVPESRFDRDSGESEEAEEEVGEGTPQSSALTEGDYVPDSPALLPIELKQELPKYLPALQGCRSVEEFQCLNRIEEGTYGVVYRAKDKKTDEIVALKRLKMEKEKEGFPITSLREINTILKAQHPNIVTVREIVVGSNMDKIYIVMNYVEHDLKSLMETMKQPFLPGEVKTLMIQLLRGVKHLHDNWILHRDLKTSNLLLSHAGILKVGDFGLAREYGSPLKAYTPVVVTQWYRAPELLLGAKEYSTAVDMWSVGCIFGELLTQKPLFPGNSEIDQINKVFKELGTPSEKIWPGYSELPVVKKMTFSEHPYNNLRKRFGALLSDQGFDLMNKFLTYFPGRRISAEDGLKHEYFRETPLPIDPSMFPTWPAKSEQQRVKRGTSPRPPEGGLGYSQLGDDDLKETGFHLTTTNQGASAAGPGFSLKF
To be noted: NEW KINOMEscan.

Sequence of kinases (KINOMEscan panel) (Homo sapiens, UniProt P42336, H1047L) (P42336 whole entry H1047L): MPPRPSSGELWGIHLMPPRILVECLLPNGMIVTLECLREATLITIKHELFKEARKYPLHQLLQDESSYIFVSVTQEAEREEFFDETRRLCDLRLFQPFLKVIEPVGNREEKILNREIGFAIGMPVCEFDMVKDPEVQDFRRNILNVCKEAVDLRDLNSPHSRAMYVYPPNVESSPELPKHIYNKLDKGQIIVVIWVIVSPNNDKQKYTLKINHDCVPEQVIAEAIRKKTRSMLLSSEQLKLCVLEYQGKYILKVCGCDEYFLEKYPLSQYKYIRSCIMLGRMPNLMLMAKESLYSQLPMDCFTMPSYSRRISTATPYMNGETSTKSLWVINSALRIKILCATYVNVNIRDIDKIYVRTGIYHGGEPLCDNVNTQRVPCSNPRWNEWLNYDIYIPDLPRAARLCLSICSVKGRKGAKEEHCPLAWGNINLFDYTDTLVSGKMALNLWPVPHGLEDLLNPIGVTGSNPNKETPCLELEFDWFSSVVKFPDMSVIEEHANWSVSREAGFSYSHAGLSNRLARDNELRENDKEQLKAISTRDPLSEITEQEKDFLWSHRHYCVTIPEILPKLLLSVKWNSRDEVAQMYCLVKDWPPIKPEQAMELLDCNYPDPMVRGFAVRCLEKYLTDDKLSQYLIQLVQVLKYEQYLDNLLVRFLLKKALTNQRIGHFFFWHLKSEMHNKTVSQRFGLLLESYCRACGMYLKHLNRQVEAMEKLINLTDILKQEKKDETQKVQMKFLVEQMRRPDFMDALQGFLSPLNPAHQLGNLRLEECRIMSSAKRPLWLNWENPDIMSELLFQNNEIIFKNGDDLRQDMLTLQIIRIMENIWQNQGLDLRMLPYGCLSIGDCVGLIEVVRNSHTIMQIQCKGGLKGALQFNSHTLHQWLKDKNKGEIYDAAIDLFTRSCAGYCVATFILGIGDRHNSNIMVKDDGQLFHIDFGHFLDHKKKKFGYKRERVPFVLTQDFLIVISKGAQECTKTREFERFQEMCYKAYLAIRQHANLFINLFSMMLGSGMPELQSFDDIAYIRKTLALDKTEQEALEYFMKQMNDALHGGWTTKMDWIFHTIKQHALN
Sequence of kinases (KINOMEscan panel) (Homo sapiens, UniProt P49840) (P49840 whole entry): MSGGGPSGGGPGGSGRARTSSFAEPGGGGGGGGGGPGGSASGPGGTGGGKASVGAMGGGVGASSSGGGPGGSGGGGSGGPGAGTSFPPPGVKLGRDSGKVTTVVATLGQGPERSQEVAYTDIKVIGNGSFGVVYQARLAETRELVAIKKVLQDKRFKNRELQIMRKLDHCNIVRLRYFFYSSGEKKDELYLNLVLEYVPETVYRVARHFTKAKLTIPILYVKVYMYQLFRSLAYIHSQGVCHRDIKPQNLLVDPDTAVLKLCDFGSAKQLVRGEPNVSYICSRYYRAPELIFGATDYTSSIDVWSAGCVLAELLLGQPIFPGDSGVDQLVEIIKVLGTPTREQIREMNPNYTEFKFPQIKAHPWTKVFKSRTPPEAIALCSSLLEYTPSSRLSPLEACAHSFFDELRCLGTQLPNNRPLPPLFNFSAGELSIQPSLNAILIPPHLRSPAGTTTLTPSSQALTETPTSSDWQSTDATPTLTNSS
Sequence of kinases (KINOMEscan panel) (Homo sapiens, UniProt Q02779) (Q02779 whole entry): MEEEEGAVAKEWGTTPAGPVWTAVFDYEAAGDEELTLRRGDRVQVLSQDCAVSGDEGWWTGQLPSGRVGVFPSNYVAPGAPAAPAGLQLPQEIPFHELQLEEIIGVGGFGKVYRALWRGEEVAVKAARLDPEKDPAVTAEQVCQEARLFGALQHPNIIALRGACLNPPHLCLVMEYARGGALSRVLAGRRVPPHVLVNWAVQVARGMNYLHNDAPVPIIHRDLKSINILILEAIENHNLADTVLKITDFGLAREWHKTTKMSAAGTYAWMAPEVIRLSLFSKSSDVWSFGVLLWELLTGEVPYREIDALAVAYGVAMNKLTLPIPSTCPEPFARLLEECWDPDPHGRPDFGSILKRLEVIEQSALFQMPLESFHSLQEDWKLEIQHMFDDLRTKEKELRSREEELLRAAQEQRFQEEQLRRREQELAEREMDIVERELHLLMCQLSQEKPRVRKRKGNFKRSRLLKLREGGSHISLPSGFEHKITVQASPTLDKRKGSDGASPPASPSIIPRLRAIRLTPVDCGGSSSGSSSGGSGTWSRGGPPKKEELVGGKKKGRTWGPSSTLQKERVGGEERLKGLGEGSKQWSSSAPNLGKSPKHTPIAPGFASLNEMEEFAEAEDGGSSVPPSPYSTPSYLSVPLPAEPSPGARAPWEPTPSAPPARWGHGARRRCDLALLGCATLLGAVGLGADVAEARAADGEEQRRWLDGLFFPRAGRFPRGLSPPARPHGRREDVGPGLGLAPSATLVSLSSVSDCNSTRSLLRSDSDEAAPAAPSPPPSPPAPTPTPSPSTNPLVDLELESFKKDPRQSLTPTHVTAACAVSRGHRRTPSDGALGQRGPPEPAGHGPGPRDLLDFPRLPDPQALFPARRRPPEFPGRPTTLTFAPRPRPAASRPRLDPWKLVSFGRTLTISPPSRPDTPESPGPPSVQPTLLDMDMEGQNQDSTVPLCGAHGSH

For the molecule `Cc1cccc(-c2nc(N(C)c3ccc4ncsc4c3)c3ccccc3n2)n1` [NK-161], in experiment [1], the “KINOMEscan EGFR(L858R)” value was 2. The “KINOMEscan JAK1(JH1domain-catalytic)” value in [2] amounted to 0. Also, the “KINOMEscan FLT3(N841I)” value in [3] turned out to be 0. Moreover, the “KINOMEscan PIK3CA(H1047L)” value in [4] came out at 23. Besides, in [5], the “KINOMEscan ABL2” value was 8. For the same molecule, the “KINOMEscan GSK3A” value in experiment [6] is listed as 0. In experiment [7], the “KINOMEscan CDK17” value was determined as 0. Also, in experiment [8], the “KINOMEscan MAP3K10” value is on record as 1. For the same molecule, in experiment [9], the “KINOMEscan TYRO3” value was determined as 21. For the same molecule, the “KINOMEscan MAP3K1” value in experiment [10] is 0. In addition, in experiment [11], the “KINOMEscan COQ8B” value was determined as 0. Also, the “KINOMEscan CDK11A” value in experiment [12] was 25.
Regarding `Cc1cccc(-c2nc(Nc3ccc4nn(C)cc4c3)c3ccccc3n2)n1` [NK167], the “KINOMEscan EGFR(L858R)” value in experiment [1] is reported as 0. The “KINOMEscan JAK1(JH1domain-catalytic)” value in [2] was 0. For the same molecule, in [3], the “KINOMEscan FLT3(N841I)” value came out at 3. For the same molecule, the “KINOMEscan PIK3CA(H1047L)” value in experiment [4] turned out to be 4. In experiment [5], the “KINOMEscan ABL2” value was 0. Besides, the “KINOMEscan GSK3A” value in experiment [6] turned out to be 0. The “KINOMEscan CDK17” value in experiment [7] came to 1. The “KINOMEscan MAP3K10” value in [8] stood at 13. For the same molecule, in experiment [9], the “KINOMEscan TYRO3” value was 4. Besides, the “KINOMEscan MAP3K1” value in experiment [10] was determined as 0. Further, in experiment [11], the “KINOMEscan COQ8B” value came to 0. The “KINOMEscan CDK11A” value in experiment [12] came to 24.
